Patent US20220324835A1 (Nurix Therapeutics, Inc., priority 2018, published 2022)

Experiments:
T-cell [1] = test: IL-2 secretion from T-cells co-stimulated with anti-CD3 and anti-CD28 antibody (Biological Example 2); assay type: cell-based, human; details: Homo sapiens, T-cell, fold change over baseline, primary human total T-cells, read-out: IL-2 secretion Anti-CD3/Anti-CD28 stimulation; for fold induction at 0.3 µM: 0.3 μM Cbl-b inhibitor; for fold induction at 1 µM: 1 μM Cbl-b inhibitor; for fold induction at 4 µM: 4 μM Cbl-b inhibitor
Outline: (§1)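 Values are fold-change over baseline: readings (IL-2 release, CD25 staining) from inhibitor-treated T-cells divided against untreated cells […]. No detailed procedure stated.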

Cbl-b [2] = molecular target: T1, Cbl-b (Homo sapiens, UniProt Q13191); test: Cbl-b inhibition assay (Cbl-b activity assay, FRET, Biological Example 1; 100 mM NaCl, 60 nM Src kinase); assay type: biochemical; details: upper bound stated in text lists; read-out: IC50 values in the Cbl-b inhibition assay of Biological Example 1
T1 sequence (Q13191 36-427): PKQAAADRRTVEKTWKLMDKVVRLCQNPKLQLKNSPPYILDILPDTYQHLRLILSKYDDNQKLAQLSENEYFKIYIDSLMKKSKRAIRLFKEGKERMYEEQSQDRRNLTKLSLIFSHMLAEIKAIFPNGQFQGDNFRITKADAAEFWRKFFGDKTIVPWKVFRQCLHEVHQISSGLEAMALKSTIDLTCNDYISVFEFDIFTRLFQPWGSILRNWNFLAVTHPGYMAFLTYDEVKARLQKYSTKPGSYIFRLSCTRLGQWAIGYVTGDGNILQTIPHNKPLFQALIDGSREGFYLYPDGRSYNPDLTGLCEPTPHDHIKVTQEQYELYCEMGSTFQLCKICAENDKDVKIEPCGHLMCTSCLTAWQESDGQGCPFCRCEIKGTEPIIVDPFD
Outline: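 Steps: Src kinase phosphorylates N-terminal biotinylated Avi-tagged Cbl-b; phosphorylated Cbl-b binds Bodipy-fluorescein ubiquitin-loaded UbcH5B; streptavidin-terbium on Cbl-b sits close to the fluorescein label, producing FRET. Inhibitors block UbcH5B-Ub binding.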

T-cell [3] = test: CD25 cell surface staining on T-cells co-stimulated with anti-CD3 and anti-CD28 antibody (Biological Example 2); assay type: cell-based, human; details: Homo sapiens, T-cell, fold change over baseline, primary human total T-cells, read-out: CD25 staining Anti-CD3/Anti-CD28 stimulation; for fold induction at 0.3 µM: 0.3 μM Cbl-b inhibitor; for fold induction at 1 µM: 1 μM Cbl-b inhibitor; for fold induction at 4 µM: 4 μM Cbl-b inhibitor
Outline: as §1

Cbl-b [4] = molecular target: T1, Cbl-b; test: Cbl-b activity assay (Cbl-b inhibition assay), TR-FRET of Cbl-b interaction with UbcH5B-Ub; assay type: biochemical
Outline: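 Compound-treated Cbl-b was incubated 1.5 h with Src kinase (60 nM final; 30 nM for asterisked values, which also used 50 mM instead of 100 mM NaCl), 1 mM ATP and 5 mM MgCl2. Binding to fluorescent Ub-loaded UbcH5B (C85K mutant) was then read by TR-FRET after 1 h more.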

Cbl-b (residues 36-427) = Cbl-b (residues 36-427) (Homo sapiens, UniProt Q13191); test: Cbl-b binding assay (SPR, Biacore T200); details: 20° C., 1:1 binding model
Chain of Cbl-b (residues 36-427) (Q13191 36-427): as above
Outline: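 NeutrAvidin capture chip, 20° C; 50 s injections at 50 μl/min, 90-180 s dissociation; 0.3 M NaCl regeneration. Asterisked column: 50 mM NaCl buffer and 30 nM Src kinase in place of 100 mM NaCl and 60 nM Src kinase. 1:1 fit.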

[5] = assay buffer with 100 mM NaCl, 60 nM Src kinase, read-out: Cbl-b activity IC50
[6] = * assay buffer containing 50 mM NaCl instead of 100 mM NaCl and 30 nM Src kinase instead of 60 nM, read-out: Cbl-b activity IC50 (μM)*

Row | SMILES | fold induction at 0.3 µM (T-cell [1]) | fold induction at 1 µM (T-cell [1]) | fold induction at 4 µM (T-cell [1]) | IC50 (Cbl-b [2]) | fold induction at 0.3 µM (T-cell [3]) | fold induction at 1 µM (T-cell [3]) | fold induction at 4 µM (T-cell [3]) | IC50 (Cbl-b [4]; [5]) | Kd (Cbl-b (residues 36-427)) | IC50 (Cbl-b [4]; [6])
1 | C[C@H](Cc1nncn1C)c1cccc(NC(=O)c2cc(C(=O)N3C[C@@H](O)C[C@H]3C)ccn2)c1 [Compound 224, 4-((2R,4S)-4-hydroxy-2-methylpyrrolidine-1-carbonyl)-N-(3-((R)-1-(4-methyl-4H-1,2,4-triazol-3-yl)propan-2-yl)phenyl)picolinamide] | < 1 | < 1 | < 1 | ≤ 500 nM | 1.01 to 1.3 | 1.01 to 1.3 | 1.51 to 1.75 | 0.1 to 0.3 µM | 301 to 1000 nM | 
2 | COc1nc(C(=O)Nc2cccc([C@H](C)Sc3nncn3C)c2)cc2ccccc12 [Compound 62, (S)-1-methoxy-N-(3-(1-((4-methyl-4H-1,2,4-triazol-3-yl)thio)ethyl)phenyl)isoquinoline-3-carboxamide] | 2.51 to 5 | 5 to 7.5 | > 7.5 | ≤ 500 nM | < 1 | 1.01 to 1.3 | 1.01 to 1.3 | 0.1 to 0.3 µM | 301 to 1000 nM | 
3 | C[C@H](Sc1nncn1C)c1cccc(NC(=O)c2ccnc(C(F)(F)F)n2)c1 [Compound 75, N-[3-[(1S)-1-[(4-methyl-1,2,4-triazol-3-yl)sulfanyl]ethyl]phenyl]-2-(trifluoromethyl)pyrimidine-4-carboxamide] | 1.01 to 2.5 | 1.01 to 2.5 | 1.01 to 2.5 | ≤ 500 nM | 1.01 to 1.3 | 1.01 to 1.3 | 1.01 to 1.3 | 0.301 to 1 µM | 301 to 1000 nM | 
4 | C[C@H](Sc1nncn1C)c1cccc(NC(=O)c2cncc(C(F)(F)F)n2)c1 [Compound 77, N-[3-[(1S)-1-[(4-methyl-1,2,4-triazol-3-yl)sulfanyl]ethyl]phenyl]-6-(trifluoromethyl)pyrazine-2-carboxamide] | < 1 | 1.01 to 2.5 | 1.01 to 2.5 | ≤ 500 nM | < 1 | 1.01 to 1.3 | 1.01 to 1.3 | 0.301 to 1 µM | 1000 to 3000 nM | 
5 | COc1cc(C(=O)Nc2cccc([C@H](C)Sc3nncn3C)c2)nc(C(F)(F)F)c1 [Compound 71, (S)-4-methoxy-N-(3-(1-((4-methyl-4H-1,2,4-triazol-3-yl)thio)ethyl)phenyl)-6-(trifluoromethyl)picolinamide] | 2.51 to 5 | 2.51 to 5 | 5 to 7.5 | ≤ 500 nM | 1.01 to 1.3 | 1.51 to 1.75 | > 1.76 | 0.1 to 0.3 µM | 100 to 300 nM | 
6 | C[C@H](Cc1nncn1C)c1cc(N[C@@H]2CCOC2)nc(N2Cc3c(cccc3C(F)(F)F)C2=O)c1 (stereo in doubt) [Compound 362, 2-(4-((R)-1-(4-methyl-4H-1,2,4-triazol-3-yl)propan-2-yl)-6-((S)-THF-3-ylamino)pyridin-2-yl)-4-(trifluoromethyl)isoindolin-1-one] | 1.01 to 2.5 | 1.01 to 2.5 | 1.01 to 2.5 | ≤ 300 nM | < 1 | 1.01 to 1.3 | 1.01 to 1.3 | 0.1 to 0.3 µM | 100 to 300 nM | 
7 | C[C@H](Cc1nncn1C)c1cccc(N2Cc3c(Br)cccc3C2=O)c1 [Compound 256, (R)-4-bromo-2-(3-(1-(4-methyl-4H-1,2,4-triazol-3-yl)propan-2-yl)phenyl)isoindolin-1-one] | 2.51 to 5 | 5 to 7.5 | > 7.5 | ≤ 500 nM | 1.01 to 1.3 | 1.31 to 1.5 | 1.51 to 1.75 | 0.1 to 0.3 µM | 100 to 300 nM | 
8 | Cc1cc(C(=O)Nc2cccc([C@H](C)Sc3nncn3C)c2)nc2ccccc12 [Compound 30, (S)-4-Methyl-N-(3-(1-((4-methyl-4H-1,2,4-triazol-3-yl)thio)ethyl)phenyl)quinoline-2-carboxamide] | 1.01 to 2.5 | 1.01 to 2.5 | 2.51 to 5 | ≤ 500 nM | 1.01 to 1.3 | 1.01 to 1.3 | 1.01 to 1.3 | 0.301 to 1 µM | 1000 to 3000 nM | 0.301 to 1 µM
9 | C[C@H](Sc1nnc[nH]1)c1cccc(NC(=O)c2cc3ccccc3cn2)c1 [Compound 98, (S)-N-(3-(1-((4H-1,2,4-triazol-3-yl)thio)ethyl)phenyl)isoquinoline-3-carboxamide] | 1.01 to 2.5 | 1.01 to 2.5 | 1.01 to 2.5 | ≤ 1000 nM | < 1 | < 1 | < 1 | 0.301 to 1 µM | 3000 to 10000 nM | 1 to 3 µM
10 | C[C@H](Cc1nncn1C)c1cccc(NC(=O)c2cc(C(C)(C)O)c(Cl)cn2)c1 [Compound 186, (R)-5-chloro-4-(2-hydroxypropan-2-yl)-N-(3-(1-(4-methyl-4H-1,2,4-triazol-3-yl)propan-2-yl)phenyl)picolinamide] | 2.51 to 5 | 1.01 to 2.5 | 5 to 7.5 | ≤ 500 nM | 1.01 to 1.3 | 1.31 to 1.5 | > 1.76 | 0.301 to 1 µM | 301 to 1000 nM | 
11 | CCn1cnnc1C[C@@H](C)c1cccc(NC(=O)c2cc(C(=O)N3C[C@@H](O)C[C@H]3C)ccn2)c1 [Compound 251, N-(3-((R)-1-(4-ethyl-4H-1,2,4-triazol-3-yl)propan-2-yl)phenyl)-4-((2R,4S)-4-hydroxy-2-methylpyrrolidine-1-carbonyl)picolinamide] | < 1 | < 1 | 1.01 to 2.5 | ≤ 1000 nM | 1.01 to 1.3 | 1.01 to 1.3 | 1.01 to 1.3 | 0.301 to 1 µM | 1000 to 3000 nM | 
12 | Cn1cnnc1C(F)(F)C(C)(F)c1cccc(N2Cc3c(cccc3C(F)(F)F)C2=O)c1 (racemic) [Compound 296, 2-(3-(1,1,2-trifluoro-1-(4-methyl-4H-1,2,4-triazol-3-yl)propan-2-yl)phenyl)-4-(trifluoromethyl)isoindolin-1-one] | < 1 | < 1 | 1.01 to 2.5 | ≤ 1000 nM | 1.01 to 1.3 | 1.01 to 1.3 | 1.01 to 1.3 | 0.301 to 1 µM | 3000 to 10000 nM | 
13 | C[C@H](Sc1nncn1C)c1cccc(NC(=O)c2cc(Cl)cc(C(F)(F)F)n2)c1 [Compound 68, (S)-4-chloro-N-(3-(1-((4-methyl-4H-1,2,4-triazol-3-yl)thio)ethyl)phenyl)-6-(trifluoromethyl)picolinamide] | 1.01 to 2.5 | 1.01 to 2.5 | 1.01 to 2.5 | ≤ 500 nM | 1.01 to 1.3 | 1.01 to 1.3 | 1.01 to 1.3 | 0.1 to 0.3 µM | 301 to 1000 nM | 
